Earlier results on 1 substance are cited in patent publication US8268905B1, “Compositions containing poly(lactic acid), bacteriocin(s), plasticizers(s), and optionally pore forming agent(s), and methods or making” (The United States of America, as represented by the …, priority 2008, dated 2012).

The conditions of this series: background statement.

For nisin, the “maximal temperature at which nisin can retain its bioactivity” value was 120 °C.
